Data as given in ChEMBL document CHEMBL4431367, “Role of a gitogenin-type steroidal saponin (3-O-β-d-glucopyranosyl (1→2)-β-d-glucopyranosyl (1→4)-β-d-galactopyranoside-25R,5α-spirostane-2α,3β-diol), isolated from the leaves of Malvastrum coromandelianum in regulating thyrotoxicosis in rats” (2016).
Activity calls are given as the source filed them. The rule behind the calls is not given here.

Tests used:
Rattus norvegicus [1] = experiment: (§1) Antithyroid activity in L-T4-induced Wistar albino rat model of hyperthyroidism assessed as inhibition of hepatic 5'-monodeiodinase 1 activity using T4 as substrate at 20 mg/kg, po qd post 12 days of L-T4 challenge measured after 15 days in presence of [125I]-T3 by RIA; format: functional, organism-based
Rattus norvegicus [2] = experiment: Antioxidant activity in L-T4-induced Wistar albino rat model of hyperthyroidism assessed as lipid peroxidation level by measuring MDA formation per mg protein at 10 mg/kg, po qd post 12 days of L-T4 challenge measured after 15 days by TBARS assay (reference value: 1.34 +/- 0.19 nM/hr); format: functional
Rattus norvegicus [3] = experiment: Antioxidant activity in L-T4-induced Wistar albino rat model of hyperthyroidism assessed as lipid peroxidation level by measuring MDA formation per mg protein at 20 mg/kg, po qd post 12 days of L-T4 challenge measured after 15 days by TBARS assay (reference value: 1.34 +/- 0.19 nM/hr); format: functional
Rattus norvegicus [4] = experiment: Antioxidant activity in L-T4-induced Wistar albino rat model of hyperthyroidism assessed as lipid peroxidation level by measuring MDA formation per mg protein at 30 mg/kg, po qd post 12 days of L-T4 challenge measured after 15 days by TBARS assay (reference value: 1.34 +/- 0.19 nM/hr); format: functional
Rattus norvegicus [5] = experiment: Antithyroid activity in L-T4-induced Wistar albino rat model of hyperthyroidism assessed as serum T3 level at 10 mg/kg, po qd post 12 days of L-T4 challenge measured after 15 days in presence of [125I]-T3 by RIA (reference value: 2.31 +/- 0.53 ng/ml); format: functional
Rattus norvegicus [6] = experiment: Antithyroid activity in L-T4-induced Wistar albino rat model of hyperthyroidism assessed as serum T3 level at 20 mg/kg, po qd post 12 days of L-T4 challenge measured after 15 days in presence of [125I]-T3 by RIA (reference value: 2.31 +/- 0.53 ng/ml); format: functional
Rattus norvegicus [7] = experiment: Antithyroid activity in L-T4-induced Wistar albino rat model of hyperthyroidism assessed as serum T4 level at 20 mg/kg, po qd post 12 days of L-T4 challenge measured after 15 days in presence of [125I]-T4 by RIA (reference value: 92.14 +/- 3.45 ng/ml); format: functional
Rattus norvegicus [8] = experiment: Antithyroid activity in L-T4-induced Wistar albino rat model of hyperthyroidism assessed as serum T3 level at 30 mg/kg, po qd post 12 days of L-T4 challenge measured after 15 days in presence of [125I]-T3 by RIA (reference value: 2.31 +/- 0.53 ng/ml); format: functional
Rattus norvegicus [9] = experiment: Antithyroid activity in L-T4-induced Wistar albino rat model of hyperthyroidism assessed as serum T4 level at 10 mg/kg, po qd post 12 days of L-T4 challenge measured after 15 days in presence of [125I]-T4 by RIA (reference value: 92.14 +/- 3.45 ng/ml); format: functional
Rattus norvegicus [10] = experiment: Antithyroid activity in L-T4-induced Wistar albino rat model of hyperthyroidism assessed as serum T4 level at 30 mg/kg, po qd post 12 days of L-T4 challenge measured after 15 days in presence of [125I]-T4 by RIA (reference value: 92.14 +/- 3.45 ng/ml); format: functional
Rattus norvegicus [11] = experiment: Antithyroid activity in L-T4-induced Wistar albino rat model of hyperthyroidism assessed as reduction in T3 level at 20 mg/kg, po qd post 12 days of L-T4 challenge measured after 15 days in presence of [125I]-T3 by RIA; format: functional
Rattus norvegicus [12] = experiment: Antithyroid activity in L-T4-induced Wistar albino rat model of hyperthyroidism assessed as decrease in body weight loss at 20 mg/kg, po qd post 12 days of L-T4 challenge measured after 15 days; format: functional, organism-based
Rattus norvegicus [13] = experiment: Antioxidant activity in L-T4-induced Wistar albino rat model of hyperthyroidism assessed as increase in superoxide dismutase activity by measuring pyrogallol oxidization per mg protein at 20 mg/kg, po qd administered post 12 days of L-T4 challenge measured on day 28; format: functional, organism-based
Rattus norvegicus [14] = experiment: Antioxidant activity in L-T4-induced Wistar albino rat model of hyperthyroidism assessed as increase in catalase activity by measuring H2O2 utilization per mg protein at 20 mg/kg, po qd administered post 12 days of L-T4 challenge measured every 5 secs for 30 secs on day 28 by spectrophotometric method; format: functional, organism-based
Rattus norvegicus [15] = experiment: Antioxidant activity in L-T4-induced Wistar albino rat model of hyperthyroidism assessed as reduction in total GSH content per mg of protein at 20 mg/kg, po qd administered post 12 days of L-T4 challenge measured after 15 days by Ellman's method; format: functional, organism-based
Rattus norvegicus [16] = experiment: Antithyroid activity in L-T4-induced Wistar albino rat model of hyperthyroidism assessed as reduction in glucose-6-phosphatase activity at 20 mg/kg, po qd post 12 days of L-T4 challenge measured after 15 days; format: functional, organism-based
Rattus norvegicus [17] = experiment: Antithyroid activity in L-T4-induced Wistar albino rat model of hyperthyroidism assessed as reduction in T4 level at 20 mg/kg, po qd post 12 days of L-T4 challenge measured after 15 days in presence of [125I]-T4 by RIA; format: functional
Rattus norvegicus [18] = experiment: as §1, with “1 activity by measuring reduction in T3 level using T4” for “1 activity using T4”; format: functional
Rattus norvegicus [19] = species: Rattus norvegicus; experiment: animal or person; settings: Wistar, po, read-out: INH
Description: Antithyroid activity in L-T4-induced Wistar albino rat model of hyperthyroidism assessed as reduction in T3 level at 10 mg/kg, po qd post 12 days of L-T4 challenge measured after 15 days in presence of [125I]-T3 by RIA

Rattus norvegicus [20] = species: Rattus norvegicus; experiment: animal or person; settings: Wistar, po, read-out: INH; remark: listed apart in the source
Description: Antithyroid activity in L-T4-induced Wistar albino rat model of hyperthyroidism assessed as reduction in T4 level at 10 mg/kg, po qd post 12 days of L-T4 challenge measured after 15 days in presence of [125I]-T4 by RIA

Rattus norvegicus [21] = species: Rattus norvegicus; experiment: animal or person; settings: Wistar, po, read-out: INH; remark: listed apart in the source
Description: Antithyroid activity in L-T4-induced Wistar albino rat model of hyperthyroidism assessed as inhibition of hepatic 5'-monodeiodinase 1 activity by measuring reduction in T3 level using T4 as substrate at 10 mg/kg, po qd post 12 days of L-T4 challenge measured after 15 days in presence of [125I]-T3 by RIA

`C[C@@H]1CC[C@@]2(OC1)O[C@H]1C[C@H]3[C@@H]4CC[C@H]5C[C@@H](O[C@@H]6O[C@H](CO)[C@H](O)[C@H](O[C@@H]7O[C@H](CO)[C@@H](O)[C@H](O)[C@H]7O[C@@H]7O[C@H](CO)[C@@H](O)[C@H](O)[C@H]7O)[C@H]6O)[C@H](O)C[C@]5(C)[C@H]4CC[C@]3(C)[C@H]1[C@@H]2C` was tested, and the inhibition (Rattus norvegicus [1]) was “Active”, the Activity (Rattus norvegicus [2]) was 0.871 nM/h and the Activity (Rattus norvegicus [3]) was 0.312 nM/h. For the same compound, the Activity (Rattus norvegicus [4]) was 0.976 nM/h, the Activity (Rattus norvegicus [5]) was 1.91 ng/mL and the Activity (Rattus norvegicus [6]) was 0.31 ng/mL. For the same compound, the Activity (Rattus norvegicus [7]) was 38.7 ng/mL, the Activity (Rattus norvegicus [8]) was 0.99 ng/mL and the Activity (Rattus norvegicus [9]) was 79.81 ng/mL. The Activity (Rattus norvegicus [10]) was 49.85 ng/mL, the inhibition in vivo at 20 mg/kg (Rattus norvegicus [11]) was 56% and the Activity (Rattus norvegicus [12]) was “Active”. For the same compound, the Activity (Rattus norvegicus [13]) was “Active”, the Activity (Rattus norvegicus [14]) was “Active” and the Activity (Rattus norvegicus [15]) was “Active”. For the same compound, the Activity (Rattus norvegicus [16]) was “Active”, the inhibition in vivo at 20 mg/kg (Rattus norvegicus [17]) was 88.8% and the inhibition in vivo at 20 mg/kg (Rattus norvegicus [18]) was 75.1%.

`CCCc1cc(=O)[nH]c(=S)[nH]1` [PROPYLTHIOURACIL] gave an inhibition in vivo at 10 mg/kg (Rattus norvegicus [19]) of 56.5%, an inhibition in vivo at 10 mg/kg (Rattus norvegicus [20]) of 81% and an inhibition in vivo at 10 mg/kg (Rattus norvegicus [21]) of 59%.
